Measurements from ChEMBL document CHEMBL5038653, “A Brain-Penetrant and Bioavailable Pyrazolopiperazine BACE1 Inhibitor Elicits Sustained Reduction of Amyloid β In Vivo” (ACS Med Chem Lett, 2022).
In brackets after ≈: the same amount, converted by molar mass. Activity calls are given as the source filed them. The calls are words filed in the database; no cut-off is given here.

Tests used:
[1] = biological target: Beta-secretase 1 (Homo sapiens, UniProt P56817); experiment: Inhibition of BACE1 (1 to 454 residues) (unknown origin) using APP harboring Swedish Lys/Met mutant-derived peptide as substrate by FRET assay
Sequence of Beta-secretase 1 (P56817 whole entry, the tested form may be a part): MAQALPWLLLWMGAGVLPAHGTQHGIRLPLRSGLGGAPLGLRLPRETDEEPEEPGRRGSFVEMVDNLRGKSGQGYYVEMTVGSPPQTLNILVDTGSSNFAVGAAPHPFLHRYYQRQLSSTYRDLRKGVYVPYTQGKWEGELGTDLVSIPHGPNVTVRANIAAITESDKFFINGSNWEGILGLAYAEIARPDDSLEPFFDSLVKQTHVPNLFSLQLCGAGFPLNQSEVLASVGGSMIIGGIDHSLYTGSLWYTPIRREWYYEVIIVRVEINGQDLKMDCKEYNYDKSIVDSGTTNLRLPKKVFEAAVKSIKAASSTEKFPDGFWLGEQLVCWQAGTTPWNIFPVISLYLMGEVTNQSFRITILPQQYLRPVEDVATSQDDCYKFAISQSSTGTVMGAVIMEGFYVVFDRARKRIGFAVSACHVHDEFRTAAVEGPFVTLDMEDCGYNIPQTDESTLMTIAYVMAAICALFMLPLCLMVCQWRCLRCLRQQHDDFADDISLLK

[2] = biological target: T1, Cytochrome P450 3A4 (Homo sapiens, UniProt P08684); experiment: Inhibition of human CYP3A4 by fluorescence plate reader analysis; type: ADME
T1 sequence (P08684 whole entry): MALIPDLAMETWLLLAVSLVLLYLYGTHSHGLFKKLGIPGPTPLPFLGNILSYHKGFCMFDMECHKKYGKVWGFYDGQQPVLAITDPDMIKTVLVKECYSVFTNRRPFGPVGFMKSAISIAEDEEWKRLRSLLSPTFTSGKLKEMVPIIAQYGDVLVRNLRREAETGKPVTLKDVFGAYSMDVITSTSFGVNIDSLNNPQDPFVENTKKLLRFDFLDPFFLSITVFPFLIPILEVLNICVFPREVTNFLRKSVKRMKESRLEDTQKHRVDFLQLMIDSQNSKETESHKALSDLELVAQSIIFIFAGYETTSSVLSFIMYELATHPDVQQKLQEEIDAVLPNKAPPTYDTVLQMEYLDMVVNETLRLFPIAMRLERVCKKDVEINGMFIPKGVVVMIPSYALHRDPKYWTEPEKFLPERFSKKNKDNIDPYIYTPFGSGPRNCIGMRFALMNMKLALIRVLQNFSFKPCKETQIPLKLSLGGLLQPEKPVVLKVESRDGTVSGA

[3] = biological target: Voltage-gated inwardly rectifying potassium channel KCNH2 (Homo sapiens, UniProt Q12809); experiment: Inhibition of hERG expressed in HEK293 cells at -80 mV holding potential by automated patch-clamp method; type: toxicity, cell-based
Sequence of Voltage-gated inwardly rectifying potassium channel KCNH2 (Q12809 whole entry): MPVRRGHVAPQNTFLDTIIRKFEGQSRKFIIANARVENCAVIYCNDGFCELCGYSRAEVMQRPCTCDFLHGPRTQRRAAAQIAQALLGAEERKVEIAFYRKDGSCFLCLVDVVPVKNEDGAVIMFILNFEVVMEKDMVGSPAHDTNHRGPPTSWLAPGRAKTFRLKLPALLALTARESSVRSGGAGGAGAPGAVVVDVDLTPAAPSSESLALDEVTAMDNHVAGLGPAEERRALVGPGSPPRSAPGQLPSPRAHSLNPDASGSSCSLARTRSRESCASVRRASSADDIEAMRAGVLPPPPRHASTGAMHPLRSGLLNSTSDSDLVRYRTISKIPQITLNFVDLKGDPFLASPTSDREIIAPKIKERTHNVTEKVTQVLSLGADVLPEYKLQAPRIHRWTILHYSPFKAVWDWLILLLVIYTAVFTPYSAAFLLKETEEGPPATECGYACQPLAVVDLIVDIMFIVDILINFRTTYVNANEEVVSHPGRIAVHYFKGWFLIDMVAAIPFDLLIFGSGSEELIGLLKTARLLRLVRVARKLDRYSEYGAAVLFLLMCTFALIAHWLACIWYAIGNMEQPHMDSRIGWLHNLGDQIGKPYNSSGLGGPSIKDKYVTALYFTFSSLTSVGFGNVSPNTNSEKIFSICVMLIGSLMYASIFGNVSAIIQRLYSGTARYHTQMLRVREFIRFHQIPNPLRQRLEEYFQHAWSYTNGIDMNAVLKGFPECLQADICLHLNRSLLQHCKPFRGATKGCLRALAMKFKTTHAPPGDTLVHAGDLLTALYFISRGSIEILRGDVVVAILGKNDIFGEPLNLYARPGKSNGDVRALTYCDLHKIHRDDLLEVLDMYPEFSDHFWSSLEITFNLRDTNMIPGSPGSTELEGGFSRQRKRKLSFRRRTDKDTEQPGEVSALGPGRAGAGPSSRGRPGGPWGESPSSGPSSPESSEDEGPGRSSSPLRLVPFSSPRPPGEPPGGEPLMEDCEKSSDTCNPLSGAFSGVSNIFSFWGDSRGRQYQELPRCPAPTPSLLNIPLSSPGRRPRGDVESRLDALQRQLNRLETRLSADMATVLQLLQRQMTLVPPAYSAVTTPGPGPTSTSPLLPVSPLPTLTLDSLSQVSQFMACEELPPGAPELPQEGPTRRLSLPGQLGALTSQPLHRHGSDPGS

[4] = test system: MDR1; experiment: Efflux ratio of apparent permeability in dog MDCK-MDR1 cells; type: ADME, cell-based, Canis lupus familiaris
[5] = biological target: hERG (KCNH2) (Homo sapiens, UniProt Q12809); experiment: Inhibition of hERG expressed in HEK293 cells at 3 uM at -80 mV holding potential by automated patch-clamp method; type: toxicity, cell-based; conditions: HEK293 cells expressing hERG
Sequence of hERG (KCNH2) (Q12809 whole entry): as above

[6] = biological target: T1, Cytochrome P450 3A4; experiment: Inhibition of human CYP3A4 using midazolam as substrate by fluorescence plate reader analysis; type: ADME; conditions: for inhibition (INH): human
[7] = biological target: Cytochrome P450 2C19 (Homo sapiens, UniProt P33261); experiment: Inhibition of human CYP2C19 by fluorescence plate reader analysis; type: ADME
Sequence of Cytochrome P450 2C19 (P33261 whole entry): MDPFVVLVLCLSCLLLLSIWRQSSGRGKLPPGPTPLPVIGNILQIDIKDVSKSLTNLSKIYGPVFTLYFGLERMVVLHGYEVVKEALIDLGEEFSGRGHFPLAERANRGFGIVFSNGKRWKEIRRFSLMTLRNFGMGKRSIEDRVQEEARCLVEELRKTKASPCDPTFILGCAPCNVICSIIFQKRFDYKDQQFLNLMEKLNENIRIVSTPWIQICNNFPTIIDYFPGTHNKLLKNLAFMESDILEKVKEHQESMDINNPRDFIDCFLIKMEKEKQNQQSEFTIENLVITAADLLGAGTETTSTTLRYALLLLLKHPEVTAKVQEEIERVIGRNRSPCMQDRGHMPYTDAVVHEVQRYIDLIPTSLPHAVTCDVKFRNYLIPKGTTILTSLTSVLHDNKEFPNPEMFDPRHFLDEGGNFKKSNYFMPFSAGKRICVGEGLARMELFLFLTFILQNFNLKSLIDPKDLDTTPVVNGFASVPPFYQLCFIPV

[8] = biological target: T2, Cytochrome P450 1A2 (Homo sapiens, UniProt P05177); experiment: Inhibition of human CYP1A2 by fluorescence plate reader analysis; type: ADME
T2 sequence (P05177 whole entry): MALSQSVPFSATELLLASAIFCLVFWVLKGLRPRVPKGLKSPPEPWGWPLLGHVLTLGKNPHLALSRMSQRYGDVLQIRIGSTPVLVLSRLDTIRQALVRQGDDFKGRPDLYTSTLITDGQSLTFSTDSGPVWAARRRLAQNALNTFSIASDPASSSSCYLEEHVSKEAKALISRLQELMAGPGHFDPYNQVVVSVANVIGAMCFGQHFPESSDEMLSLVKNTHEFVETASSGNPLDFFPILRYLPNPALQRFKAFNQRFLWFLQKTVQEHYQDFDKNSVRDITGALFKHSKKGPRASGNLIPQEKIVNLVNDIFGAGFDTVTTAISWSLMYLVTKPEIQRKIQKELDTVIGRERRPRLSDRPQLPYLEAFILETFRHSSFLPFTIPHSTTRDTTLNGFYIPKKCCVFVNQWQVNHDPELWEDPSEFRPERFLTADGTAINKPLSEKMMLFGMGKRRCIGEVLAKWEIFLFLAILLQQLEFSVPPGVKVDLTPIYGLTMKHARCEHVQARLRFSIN

[9] = Metabolic stability in human liver microsomes assessed as metabolite formation after 15 mins in presence of NADPH by LC-MS analysis; type: ADME, Microsome; conditions: 0.25 h
[10] = biological target: T1, Cytochrome P450 3A4; experiment: Inhibition of human CYP3A4 using testosterone as substrate by fluorescence plate reader analysis; type: ADME
[11] = test system: Canis lupus familiaris; experiment: In vivo inhibition of BACE1 in Beagle dog assessed as reduction of amyloid beta (1 to 42 residues) levels in CSF at 2.5 mg/kg, po measured after 24 hrs by electrochemiluminescence assay; type: functional, organism-based
[12] = Ratio of apparent permeability across apical to basolateral side in the presence of P-gp inhibitor elacridar to the absence of P-gp inhibitor elacridar in dog MDCK-MDR1 cells at 5 uM incubated for 120 mins; type: ADME, cell-based, Canis lupus familiaris; conditions: 2 h
[13] = Dissociation constant, pKa of the compound by fast UV-spectrometric titration analysis; type: physicochemical
[14] = biological target: T1, Cytochrome P450 3A4; experiment: Time dependent inhibition of human CYP3A4 using testosterone as substrate by fluorescence plate reader analysis; type: ADME
[15] = Total plasma concentration in Beagle dog at 2.5 mg/kg, po; type: ADME, organism-based, Canis lupus familiaris; conditions: in vivo
[16] = biological target: T3, Cytochrome P450 2C8 (Homo sapiens, UniProt P10632); experiment: Inhibition of human CYP2C8 by fluorescence plate reader analysis; type: ADME
T3 sequence (P10632 whole entry): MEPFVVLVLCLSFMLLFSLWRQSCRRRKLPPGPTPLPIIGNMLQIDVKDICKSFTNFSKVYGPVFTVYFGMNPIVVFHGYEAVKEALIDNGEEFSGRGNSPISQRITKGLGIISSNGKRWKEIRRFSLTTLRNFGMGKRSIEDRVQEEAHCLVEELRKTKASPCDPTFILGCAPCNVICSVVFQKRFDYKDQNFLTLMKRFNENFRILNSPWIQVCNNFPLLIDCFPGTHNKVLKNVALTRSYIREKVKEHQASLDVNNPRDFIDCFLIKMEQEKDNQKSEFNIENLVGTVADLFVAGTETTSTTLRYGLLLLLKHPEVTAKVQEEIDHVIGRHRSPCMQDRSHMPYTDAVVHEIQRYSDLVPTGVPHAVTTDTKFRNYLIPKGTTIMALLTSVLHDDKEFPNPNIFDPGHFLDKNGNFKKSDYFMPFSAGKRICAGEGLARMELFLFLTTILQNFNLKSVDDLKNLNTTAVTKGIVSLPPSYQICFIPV

[17] = In vivo inhibition of BACE1 in Beagle dog assessed as reduction of amyloid beta (1 to 42 residues) levels in CSF administered orally by electrochemiluminescence assay; type: functional, organism-based, Canis lupus familiaris; conditions: Canis lupus familiaris, Beagle
[18] = Free drug concentration in mouse plasma measured after 4.5 hrs by HPLC-MS/MS method; type: ADME, cell-free
[19] = Half life in Beagle dog at 2.5 mg/kg, po; type: ADME, organism-based, Canis lupus familiaris; conditions: in vivo
[20] = Free drug concentration in rat brain measured after 5 hrs by HPLC-MS/MS method; type: ADME, tissue-based
[21] = biological target: Cytochrome P450 2C9 (Homo sapiens, UniProt P11712); experiment: Inhibition of human CYP2C9 by fluorescence plate reader analysis; type: ADME
Sequence of Cytochrome P450 2C9 (P11712 whole entry): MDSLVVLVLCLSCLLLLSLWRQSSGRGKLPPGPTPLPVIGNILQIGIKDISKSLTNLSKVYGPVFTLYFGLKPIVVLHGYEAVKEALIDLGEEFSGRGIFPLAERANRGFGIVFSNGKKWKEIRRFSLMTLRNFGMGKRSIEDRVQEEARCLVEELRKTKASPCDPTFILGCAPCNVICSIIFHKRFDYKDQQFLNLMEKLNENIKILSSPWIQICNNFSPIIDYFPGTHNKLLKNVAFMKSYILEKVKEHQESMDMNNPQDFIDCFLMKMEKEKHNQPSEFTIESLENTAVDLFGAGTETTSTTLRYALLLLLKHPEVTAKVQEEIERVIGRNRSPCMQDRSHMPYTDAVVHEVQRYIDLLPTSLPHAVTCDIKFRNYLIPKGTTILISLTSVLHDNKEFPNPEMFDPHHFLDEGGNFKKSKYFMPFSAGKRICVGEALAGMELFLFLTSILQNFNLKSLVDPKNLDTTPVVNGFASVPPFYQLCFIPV

[22] = Free drug concentration in human plasma measured after 4.5 hrs by HPLC-MS/MS method; type: ADME, cell-free
[23] = Free drug concentration in dog plasma measured after 4.5 hrs by HPLC-MS/MS method; type: ADME, cell-free, Canis lupus familiaris
[24] = Metabolic stability in mouse liver microsomes assessed as metabolite formation after 15 mins in presence of NADPH by LC-MS analysis; type: ADME, Microsome; conditions: 0.25 h

| SMILES | IC50 [1] [nM] | IC50 [2] [nM] | IC50 [3] [nM] | efflux ratio [4] | other results |
| --- | --- | --- | --- | --- | --- |
| COc1cnc(C(=O)Nc2ccc(F)c([C@]3(C)Cn4c(C#N)cnc4C(N)=N3)c2)cn1 | 5.5 | 3100 | > 10000 |  |  |
| C[C@@]1(c2cc(NC(=O)c3ccc(OC(F)F)cn3)ccc2F)Cn2nc(C#N)cc2C(N)=N1 | 1.4 |  | 6600 | 7 |  |
| C[C@@]1(c2cc(NC(=O)c3ccc(C#N)cn3)ccc2F)Cn2nc(C#N)cc2C(N)=N1 | 1.7 |  | 4600 | 15.2 | inhibition at 3 µM [5]: 71% |
| CC(C)(C)OC(=O)Nc1ccc(F)c([C@]2(C)Cn3c(C#N)cnc3C(N)=N2)c1 |  |  |  |  | inhibition (INH) [6]: Active |
| C[C@@]1(c2cc(NC(=O)c3ccc(C#N)cn3)ccc2F)Cn2c(C#N)cnc2C(N)=N1 | 3.7 | 6700 | > 10000 |  | IC50 [7]: > 10000 nM; IC50 [8]: > 10000 nM; Drug metabolism [9]: 34%; IC50 [10]: 1500 nM; inhibition [11]: inactive; Ratio [12]: 9.3; pKa [13]: 7.2; IC50 [14]: 270 nM; concentration [15]: 72 nM; IC50 [16]: > 10000 nM; EC50 [17]: 0.03 µg/mL (≈ 0.0724 µM); fraction unbound at 4.5 h [18]: 0.06; half-life [19]: 8 h; fraction unbound at 5 h [20]: 0.15; IC50 [21]: > 10000 nM; fraction unbound at 4.5 h [22]: 0.2; fraction unbound at 4.5 h [23]: 0.32; Drug metabolism [24]: 81%; IC50 [6]: 6700 nM |
| C[C@@]1(c2cc(NC(=O)c3ccc(F)cn3)ccc2F)Cn2nc(C#N)cc2C(N)=N1 | 2.8 |  | 3300 | 7 |  |
| C[C@@]1(c2cc(NC(=O)c3ccc(F)cn3)ccc2F)Cn2c(C#N)cnc2C(N)=N1 | 11.5 | 4400 | > 10000 |  | inhibition (INH) [6]: Active |
| C[C@@]1(c2cc(NC(=O)c3cnc(C(F)F)cn3)ccc2F)Cn2nc(C#N)cc2C(N)=N1 | 3.7 |  | > 10000 | 11.5 |  |
| C[C@@]1(c2cc(NC(=O)c3cnc(OCF)cn3)ccc2F)Cn2nc(C#N)cc2C(N)=N1 | 2.3 |  | > 10000 | 8.5 |  |
| C[C@@]1(c2cc(NC(=O)c3ccc(Cl)cn3)ccc2F)Cn2c(C#N)cnc2C(N)=N1 | 2.6 | 900 | > 10000 |  | inhibition (INH) [6]: Active |
| Cc1nc(C(=O)Nc2ccc(F)c([C@]3(C)Cn4nc(C#N)cc4C(N)=N3)c2)co1 | 4.5 |  | > 10000 | 19.4 |  |
| C[C@@]1(c2cc(NC(=O)c3ccc(C#N)cn3)ccc2F)Cn2cc(C#N)nc2C(N)=N1 | 13 |  | 6600 |  | Drug metabolism [9]: 3%; Ratio [12]: 16.8; pKa [13]: 7; Drug metabolism [24]: 95% |
| C[C@@]1(c2cc(NC(=O)c3ccc(C#N)cn3)ccc2F)Cn2ccnc2C(N)=N1 |  |  |  |  | inhibition at 3 µM [5]: 76% |
